Measured values: patent US20200360311A1, “USE OF 3-METHYLMETHCATHINONE” (MIND MEDICINE, NC., priority 2017, published 2020)

Legend:
[1] = Human subject's perception of 3-MMC's effect after oral administration; type: in vivo; conditions: human subjects
Protocol: The present inventors have observed that, in some embodiments the onset of human subject's perception of 3-MMC's effect is approximately 30-90 minutes following oral administration, varying according to whether the 3-MMC was administered to a fasting (more rapid onset), or following a meal (less rapid onset). In some cases, the perception of peak effect of 3-MMC in human subjects occurred between 10 to 30 minutes after the initial perception of onset of 3-MMC's effect. The present inventors further observed that the duration of perception of the effect of 3-MMC in human subjects was, in most cases, for no greater than 4 hours following oral administration.

[2] = Case Study I: 3-MMC-assisted psychotherapy for post-traumatic stress disorder (PTSD); type: in vivo, human; conditions: person, three 3-MMC-assisted psychotherapy sessions, 200 milligrams orally
Description: Person suffering from PTSD who was previously incorrectly diagnosed with bipolar disorder, unable to work was under the care of a psychiatrist with no improvement in 4 years. […] In this case, the therapy consisted of both a male and female therapist in a room designed for this therapy (soft lighting, bed, attractive pillows, carefully chosen music, inspirational art—spiritual and nature). The patient was taught relaxation and breathing techniques and briefed in what to expect from the experience. In this case 200 milligrams of 3-MMC was given orally and the patient then lay down on the bed and listened to soothing music for 1.5 hours with eye shades on (internal experience). […] The therapists engaged in psychotherapy for 2 hours after which the patient once again lay down and put on the eyeshades for another 2 hours. Subsequently, the patient re-engaged with the therapists and explored their insights about how they could reframe the traumatic memory to be a positive learning experience.

[3] = Case Study II: 3-MMC couple's therapy; type: in vivo, human; conditions: heterosexual couple, 6 sessions over 6 months, 150 milligrams each orally plus booster 100 milligrams 1 hour later
Description: Heterosexual couple married for 17 years were caught in a cycle of repetitive conflict over what they both agreed were trivial issues. They described intense, mutual emotional reactivity and angry outbursts which was problematic enough to begin to discuss divorcing. As a last attempt to resolve their conflicts they agreed to participate in once a month 3-MMC couple's therapy. […] In this case the therapy consisted of one therapist who assessed the couple and prepared for the 3-MMC sessions with 2 non-3MMC sessions where the couple was taught a specific communication technique (Non Violent Communication). The space was a normal therapist's office with comfortable furnishings, 3 chairs and an adjoining kitchen. The 3-MMC was given orally which a dosage of 150 milligrams each followed by a booster dosage of 100 milligrams given 1 hour after the first dosage. The couple alternated between periods of listening to relaxing music and conversation, where they explored their own perspectives on how to communicate in relationship both currently and historically. The counsellor would translate some of the couple's statements in the language of non-violent communication and encourage self responsibility. The end of the session occurred 5 hours after the booster dose and a light meal was prepared and served and the couple and therapist ate and debriefed the session. […]

[4] = Case Study III: 3-MMC assisted therapy for relationship distress; type: in vivo, human; conditions: person, four 3-MMC assisted psychotherapy sessions, 300 milligrams orally
Protocol: Single professional entered in to 3-MMC assisted therapy to understand why their relationships with men never lasted more than a few months. […] In this case the patient was assessed and prepared by the female therapist in two preliminary sessions where the patients relationship history was explored. The patient was encouraged to consider the connection between their experience of their parent's relationship when they were a child and their reaction to men they dated which was coloured by their past history. The location of the therapy was the living room of the therapist which had been prepared with inspirational art and wall hangings. The sound system consisted of headphones and an ipod with soothing/spiritual music. On the treatment days the patient was given 300 milligrams of 3-MMC orally. The treatment session started by the therapist guiding a meditation exercise and then the patient was encouraged to reflect internally by lying down with eyeshades and listening to the music. In this case the internal experience was 20 minutes after which the patient removed the eyeshades and turned off the music and proceeded to express intense emotions which related to their past anger at their parent. […]

[5] = Case Study IV: 3-MMC-assisted psychotherapy for PTSD and Generalized Anxiety Disorder (GAD); type: in vivo, human; conditions: person, 200-400 mg twice weekly on two consecutive days for 8 weeks; from week 5 also EMDR with propanolol
Description: A person had been suffering from Post traumatic Stress Disorder (PTSD), depression, and General Anxiety Disorder (GAD).
The symptoms they experienced were panic attacks, hyperventilation, pain in the chest, numbness, and tingling in the extremities, Irritable-Bowel Syndrome (IBS), nightmares, and insomnia.
The PTSD had been caused by a particular life-threatening event, as well as other related incidences that had unfolded in their youth. The psychological ramifications of these events went undiagnosed for many years, although they were eventually treated for anxiety and depression. They refused however, to take the anti-depressants that their physician was willing to prescribe them, and only occasionally would take 5-10 mg Oxazepam for acute panic attacks.
At the time that they started with the 3-MMC-assisted psychotherapy, they had been suffering from an occupational burnout for 4 months already cf. DC-10 Z-73.0.
3-MMC was administered twice weekly on two consecutive days at a dosage of 200-400 mg each time for a period of 8 weeks. Starting at week 5; 3-MMC-assisted psychotherapy took place once a week. Each session lasted 6.5-10 h with an average of 8.5 h per session. […]

[6] = animal models, cited from earlier work

SMILES: CNC(C)C(=O)c1cccc(C)c1 (stereo not drawn) [3-MMC, 3-methylmethcathinone]
- onset of subject's perception of effect ([1]; following oral administration, fasting more rapid, following a meal less rapid): 30 to 90 min
- duration of perception of the effect ([1]; following oral administration, in most cases): ≤ 4 h
- perception of peak effect ([1]; time after the initial perception of onset of effect, in some cases): 10 to 30 min
- clinical outcome of PTSD patient [2]: no longer diagnosable with either PTSD or bipolar and was able to return to gainful employment
- outcome of couple's therapy [3]: able to take responsibility for their own problematic behaviour and negotiate a more functional relationship
- outcome of therapy for relationship distress [4]: understood their previously unconscious behaviour pattern
- level of fear associated with traumatic memories [5]: led the level of associated fear to decrease with each subsequent session
- time at which peak serum concentrations are apparent ([6]; after oral administration): 5 to 10 min
- apparent plasma half-life ([6]; after oral ingestion): approximately 0.8 hours
